Like-named read-outs stand apart in the source and are kept apart here.
What was measured:
[1] = system: JAK1/TYK2 pSTAT5 (Tyr694/699) in THP-1 cell line; experiment: IFNa-stimulated JAK1/TYK2 pSTAT5 (Tyr694/699) inhibition cellular assay, AlphaLISA; format: cell-based; settings: Homo sapiens, THP-1 cells, AlphaLISA (Assay B), read-out: Cellular_THP1_IFNa-pSTATS_TYK2
Summary of the method: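 THP-1 cells (2e4/well) in HBSS preincubated 1 h at 37° C. with compound (final 10000–0.04 nM, 8 points, 6-fold), then stimulated with IFNa (100 ng/mL stock) for 30 min before lysis. pSTAT5 (Tyr694/699) read by AlphaLISA at 615 nm; IC50 from four-parameter logistic fit with bottom fixed at 0 and Hill slope at −1.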

TYK2 JH2 = biological target: T1, TYK2 JH2 (Homo sapiens, UniProt P29597); experiment: TYK2 JH2 binding assay (KINOMEscan KdELECT competitive binding); settings: TYK2 JH2 domain, read-out: Biochemical TYK2_DiscoverX_JH2_BND_Kd
T1 construct: purchased DiscoverX (KINOMEscan KdELECT service); host or cells: E. coli BL21-derived (T7 phage display) or HEK-293
Summary of the method: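 JH2-domain fragment, expressed as T7 phage tag in BL21-derived E. coli or DNA-tagged from HEK-293, competed with test compound against bead-immobilized biotinylated ligand in binding buffer (0.9% DMSO). 1 h shaking at room temperature; bound kinase eluted with 0.5 μM free ligand and quantified by qPCR. Kd from 11-point 3-fold dilutions.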

[2] = DiscoverX KINOMEscan KdELECT (Assay A)
[3] = IFNa-stimulated pSTAT5 (Tyr694/699)

T1 sequence (P29597 589-875 limits assumed): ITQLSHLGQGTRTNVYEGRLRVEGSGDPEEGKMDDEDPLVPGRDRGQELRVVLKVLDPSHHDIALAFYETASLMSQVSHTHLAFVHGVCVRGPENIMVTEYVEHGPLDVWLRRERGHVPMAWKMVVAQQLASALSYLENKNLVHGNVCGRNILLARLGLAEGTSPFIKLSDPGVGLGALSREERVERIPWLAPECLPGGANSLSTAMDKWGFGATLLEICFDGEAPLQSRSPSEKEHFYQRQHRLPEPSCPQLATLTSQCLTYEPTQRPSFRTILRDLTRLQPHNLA

IC50 ([1]; IFNa-stimulated) [nM] | Kd (TYK2 JH2; KINOMEscan KdELECT (Assay A)) [nM] | Kd (TYK2 JH2; [2]) [nM] | IC50 [1, 3] [nM] | Compound
≤ 500 | ≤ 100 |  |  | CNc1ncc(-c2nc3cc(N4CCCC(F)(F)C4)ccc3o2)c2cc(NC(=O)C3CC3)ncc12 [Example 938, N-[5-[5-(3,3-difluoro-1-piperidyl)-1,3-benzoxazol-2-yl]-8-(methylamino)-2,7-naphthyridin-3-yl]cyclopropanecarboxamide]
≤ 500 |  | ≤ 100 |  | CNc1ncc(-c2nc3cc(N4CC5(COC5)C4)ccc3o2)c2cc(NC(=O)C3CC3)ncc12 [Example 296, N-(5-(5-(2-oxa-6-azaspiro[3.3]heptan-6-yl)benzo[d]oxazol-2-y1)-8-(methylamino)-2,7-naphthyridin-3-yl)cyclopropanecarboxamide]
 | ≤ 100 |  | ≤ 500 | CNc1ncc(-c2nc3ccc(N4CCOC(C(C)(C)F)C4)cn3n2)c2cc(NC(=O)C3CC3)ncc12 (single isomer, unassigned) [Example 1049]
 | ≤ 100 |  | ≤ 500 | CNc1ncc(-c2nc3cc(N4CCOCC4)ccc3o2)c2cc(NC(=O)[C@@H]3C[C@@H]3C(F)F)ncc12 (single isomer, unassigned) [Example 1069]
≤ 500 |  | ≤ 100 |  | CNc1ncc(-c2nc3ccc(C)cn3n2)c2cc(NC(=O)C3CC3)ncc12 [Example 503, N-(5-(6-methyl-[1,2,4]triazolo[1,5-a]pyridin-2-yl)-8-(methylamino)-2,7-naphthyridin-3-yl)cyclopropanecarboxamide]
> 500 | ≤ 100 |  |  | CNc1ncc(C#Cc2ccc(OC3CN(C(C)=O)C3)cc2)c2cc(NC(=O)C3(F)CC3)nnc12 [Example 915, N-(5-((4-((1-acetylazetidin-3-yl)oxy)phenyl)ethynyl)-8-(methylamino)pyrido[3,4-c]pyridazin-3-yl)-1-fluorocyclopropane-1-carboxamide]
≤ 500 | ≤ 100 |  |  | CNc1ncc(C#Cc2ccc(CN3CC(OC)C3)cc2)c2cc(NC(=O)C3CC3)ncc12 [Example 816, N-(5-((4-((3-methoxyazetidin-1-yl)methyl)phenyl)ethynyl)-8-(methylamino)-2,7-naphthyridin-3-yl)cyclopropanecarboxamide]
≤ 500 | ≤ 100 |  |  | CNc1ncc(-c2ccc(Oc3cncs3)cc2)c2cc(NC(=O)C3CC3)ncc12 [Example 857, N-(8-(methylamino)-5-(4-(thiazol-5-yloxy)phenyl)-2,7-naphthyridin-3-yl)cyclopropanecarboxamide]
 | ≤ 100 |  | ≤ 500 | CNc1ncc(C#Cc2ccc(N3CCN(C)C3=O)cc2)c2cc(NC(=O)C3CC3)ncc12 [Example 1000, N-(5-((4-(3-methyl-2-oxoimidazolidin-1-yl)phenyl)ethynyl)-8-(methylamino)-2,7-naphthyridin-3-yl)cyclopropanecarboxamide]
≤ 500 | ≤ 100 |  |  | CNc1ncc(C#Cc2ccc3nc(C4CC4)n(C)c3c2)c2cc(NC(=O)C3CC3)ncc12 [Example 740, N-(5-((2-cyclopropyl-1-methyl-1H-benzo[d]imidazol-6-yl)ethynyl)-8-(methylamino)-2,7-naphthyridin-3-yl)cyclopropanecarboxamide]
≤ 500 |  | ≤ 100 |  | CNc1ncc(-c2nc3ccc(N4C[C@@H]5C[C@H]4CO5)cn3n2)c2cc(NC(=O)C3CC3)ncc12 [Example 488, N-(5-(6-((1S,4S)-2-oxa-5-azabicyclo[2.2.1]heptan-5-yl)-[1,2,4]triazolo[1,5-a]pyridin-2-yl)-8-(methylamino)-2,7-naphthyridin-3-yl)cyclopropanecarboxamide]
 | ≤ 100 |  | > 500 | CNc1ncc(C#Cc2ccc(OC)cn2)c2cc(Nc3cccn(-c4ccccn4)c3=O)ncc12 [Example 1087, 3-[[5-[2-(5-methoxy-2-pyridyl)ethynyl]-8-(methylamino)-2,7-naphthyridin-3-yl]amino]-1-(2-pyridyl)pyridin-2-one]
≤ 500 |  | ≤ 100 |  | CNc1ncc(-c2nc3cc(C4=CCOCC4)ccc3o2)c2cc(NC(=O)C3CC3)ncc12 [Example 342, N-(5-(5-(3,6-dihydro-2H-pyran-4-yl)benzo[d]oxazol-2-yl)-8-(methylamino)-2,7-naphthyridin-3-yl)cyclopropanecarboxamide]
 | ≤ 100 |  | ≤ 500 | CNc1ncc(C#Cc2cnc(C)n2C)c2cc(NC(=O)[C@H]3C[C@H]3C)ncc12 [Example 1011]
≤ 500 |  | ≤ 100 |  | CNc1ncc(-c2nc3ccc(C)cc3o2)c2cc(NC(=O)C3CC3)ncc12 [Example 206, N-(8-(methylamino)-5-(6-methylbenzo[d]oxazol-2-yl)-2,7-naphthyridin-3-yl)cyclopropanecarboxamide]
≤ 500 | ≤ 100 |  |  | CNc1ncc(C#Cc2ccc3nnn(C)c3c2)c2cc(NC(=O)C3CC3)ncc12 [Example 595, N-(5-((1-methyl-1H-benzo[d][1,2,3]triazol-6-yl)ethynyl)-8-(methylamino)-2,7-naphthyridin-3-yl)cyclopropanecarboxamide]
≤ 500 |  | ≤ 100 |  | CNc1ncc(-c2nc3cc(N4C[C@H]5COC[C@H]5C4)ccc3o2)c2cc(NC(=O)C3CC3)ncc12 [Example 306, N-(8-(methylamino)-5-(5-((3aR,6a.S)-tetrahydro-1H-furo[3,4-c]pyrrol-5(3H)-yl)benzo[d]oxazol-2-y1)-2,7-naphthyridin-3-yl)cyclopropanecarboxamide]
≤ 500 |  | ≤ 100 |  | CNc1ncc(-c2nc3cc(OCC45CCCN4CCC5)ccc3o2)c2cc(NC(=O)C3CC3)ncc12 [Example 349, N-(8-(methylamino)-5-(5-((tetrahydro-1H-pyrrolizin-7a(5H)-yl)methoxy)benzo[d]oxazol-2-yl)-2,7-naphthyridin-3-yl)cyclopropanecarboxamide]
≤ 500 |  | ≤ 100 |  | CNc1ncc(-c2nc3ccc(N4CCC4)cn3n2)c2cc(NC(=O)C3CC3)ncc12 [Example 474, N-(5-(6-(azetidin-1-yl)-[1,2,4]triazolo[1,5-a]pyridin-2-yl)-8-(methylamino)-2,7-naphthyridin-3-yl)cyclopropanecarboxamide]
≤ 500 | ≤ 100 |  |  | CNc1ncc(C#Cc2ccc(S(C)(=O)=O)cc2)c2cc(NC(=O)C3CC3)ncc12 [Example 610, N-(8-(methylamino)-5-((4-(methylsulfonyl)phenyl)ethynyl)-2,7-naphthyridin-3-yl)cyclopropanecarboxamide]
≤ 500 | ≤ 100 |  |  | CNc1ncc(C#Cc2ccc3nnn(C4CC4)c3c2)c2cc(NC(=O)C3CC3)ncc12 [Example 687, N-(5-((1-cyclopropyl-1H-benzo[d][1,2,3]triazol-6-yl)ethynyl)-8-(methylimino)-2,7-naphthyridin-3-yl)cyclopropanecarboxamide]
≤ 500 | ≤ 100 |  |  | CNc1ncc(C#Cc2ccc(OCF)cc2)c2cc(NC(=O)C3CC3)ncc12 [Example 656, N-(5-((4-(fluoromethoxy)phenyl)ethynyl)-8-(methylamino)-2,7-naphthyridin-3-yl)cyclopropanecarboxamide]

Compound | IC50 ([1]; IFNa-stimulated) [nM] | Kd (TYK2 JH2; KINOMEscan KdELECT (Assay A)) [nM] | Kd (TYK2 JH2; [2]) [nM] | IC50 [1, 3] [nM]
CNc1ncc(C#Cc2ccc(CN3C4CCC3COC4)cc2)c2cc(NC(=O)C3CC3)ncc12 [Example 815, N-(5-((4-(3-oxa-8-aza-bicyclo[3.2.1]octan-8-ylmethyl)phenyl)ethynyl)-8-(methylamino)-2,7-naphthyridin-3-yl)cyclopropanecarboxamide] | ≤ 500 | ≤ 100 |  | 

From patent US20240025906A1 (NEURON23, INC., priority 2022, published 2024)
